Values quoted from earlier work, collected in patent publication US8791150B2, “Pharmaceutical composition for peroral administration of diindolylmethane” (Zakrytoe Aktsionernoe Obschestvo “Veles Farma”, priority 2009, dated 2014).

Legend:
[1] = system: cellular cervical cancer lines; conditions: one of the three cellular cervical cancer lines studied; cited from earlier work
[2] = system: normal (untransformed) keratinocytes; conditions: in vitro; cited from earlier work
[3] = system: pathological neoangiogenesis; conditions: injected subcutaneously, 5 mg/kg daily; cited from earlier work

| Structure (SMILES) | LD50 [1] | apoptotic changes in normal keratinocytes [2] | suppression of pathological neoangiogenesis [3] |
| --- | --- | --- | --- |
| OCc1c[nH]c2ccccc12 [Pluronic I3C, indole-3-carbinol] | 200 µM |  |  |
| c1ccc2c(Cc3c[nH]c4ccccc34)c[nH]c2c1 [DIM, 3,3′-diindolylmethane] |  | did not induce any apoptotic changes | 74% |
